The source of these data is ChEMBL document CHEMBL1201862, “PubChem BioAssay data set” (2004).

Some test systems named below: HCT-116; OVCAR-4; SNB-75; SN12C; DU-145; OVCAR-5; Hs-578T; HL-60; MCF7; CCRF-CEM; SK-MEL-28; IGROV-1; SK-MEL-5; MDA-MB-231; MDA-MB-435; NCI-H522; U-251; HT-29; A549; T47D.
Experiment in all cases: growth of human tumour cells (NCI), 48 h

Structures are written as SMILES.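 1) Cells in 96-well plates. 2) Compound, 48 h, 5 concentrations. 3) Linear interpolation between surrounding doses. 4) Unreached endpoint = highest concentration. GI50: concentration for 50% inhibition of growth.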 Activity calls are given as the source filed them. Cut-off read from the data, not from the text of the source: active = GI50 up to about 1.1 µM and inactive = higher.

For `O=C1C(C(O)(C(F)(F)F)C(F)(F)F)CCC1C(O)(C(F)(F)F)C(F)(F)F` (stereo not drawn), the GI50 was 0.556 µM (active) in the assay on HCT-116; 1.18 µM (inactive) in the assay on OVCAR-4; 0.234 µM (active) in the assay with SNB-75; 0.684 µM (active) with SN12C; 7.96 µM (inactive) in the assay with DU-145; 9.98 µM (inactive) in the assay on OVCAR-5. In addition, the GI50 in the assay with Hs-578T was 1.37 µM (inactive); in the assay on HL-60, 1.16 µM (inactive); in the assay on MCF7, 0.174 µM (active); in the assay with CCRF-CEM, 1.15 µM (inactive); in the assay with SK-MEL-28, 3.16 µM (inactive); with IGROV-1, 5.48 µM (inactive). Further, the GI50 in the assay with SK-MEL-5 is 1.72 µM (inactive); in the assay with MDA-MB-231 it was 0.746 µM (active); in the assay with MDA-MB-435 it was 13.2 µM (inactive); with NCI-H522, 1.29 µM (inactive); in the assay with U-251, 13.5 µM (inactive); in the assay on HT-29 it was 0.301 µM (active). Besides, the GI50 in the assay with A549 is 1.91 µM (inactive).
Regarding `COC(=O)C(NC(=O)CSc1nnc(COc2ccc(Cl)cc2)n1-c1ccccc1)C(C)C` (stereo not drawn), the GI50 in the assay on HCT-116 is 13 µM (inactive); in the assay with OVCAR-4 it was 25.6 µM (inactive); in the assay on SNB-75 it was 14.6 µM (inactive); in the assay with SN12C, 18.6 µM (inactive); with DU-145 it was 37.3 µM (inactive); in the assay on T47D it was 20.8 µM (inactive). In addition, the GI50 in the assay on OVCAR-5 was 28.8 µM (inactive); with HL-60, 16.7 µM (inactive); in the assay on MCF7, 40.7 µM (inactive); in the assay on CCRF-CEM it was 23.4 µM (inactive); with SK-MEL-28 it was 21.5 µM (inactive); in the assay with IGROV-1, 16.3 µM (inactive). In addition, the GI50 was 17.4 µM (inactive) with MDA-MB-231; 19.9 µM (inactive) in the assay on MDA-MB-435; 10.6 µM (inactive) in the assay on NCI-H522; 51.4 µM (inactive) in the assay with U-251; 17 µM (inactive) in the assay on HT-29; 35.2 µM (inactive) in the assay on A549.
`CC12CCCC(O)C1CCC1=CC3(CCC12)SCCS3` (stereo not drawn): the GI50 in the assay on OVCAR-4, in the assay on SNB-75, in the assay on SN12C, with DU-145, with T47D and in the assay with MCF7 was > 10 µM (inactive) throughout. Moreover, the GI50 in the assay on CCRF-CEM is 5.83 µM (inactive); in the assay with SK-MEL-28, > 10 µM (inactive); with IGROV-1, > 10 µM (inactive); with SK-MEL-5 it was > 10 µM (inactive); in the assay on MDA-MB-231, > 10 µM (inactive); in the assay with MDA-MB-435, > 10 µM (inactive). The GI50 in the assay with NCI-H522, with U-251, with HT-29 and in the assay on A549 was > 10 µM (inactive) each time.
As for `C[Si](C)(C)c1ccc(-c2c3ccc(-c4cc(Br)cc(Br)c4)nc3nc3nc(-c4cc(Br)cc(Br)c4)ccc23)cc1`, the GI50 in the assay with HCT-116, in the assay on OVCAR-4, in the assay on SNB-75, with SN12C, in the assay on DU-145 and in the assay with T47D was > 100 µM (inactive) in each case. Also, the GI50 in the assay with OVCAR-5, in the assay on MCF7, in the assay on SK-MEL-28, in the assay on SK-MEL-5, in the assay on MDA-MB-231 and in the assay with MDA-MB-435 was > 100 µM (inactive) each time. The GI50 in the assay on NCI-H522, with U-251 and in the assay on A549 was > 100 µM (inactive) throughout.
As for `O=C1c2ccccc2/C=C\C(c2ccccc2)=N/N1c1ccccc1Cl`, the GI50 was 28.1 µM (inactive) in the assay with HCT-116; 22.4 µM (inactive) in the assay on OVCAR-4; 25.9 µM (inactive) with SNB-75; 23 µM (inactive) in the assay with SN12C; 49.1 µM (inactive) in the assay with DU-145; 72.3 µM (inactive) with OVCAR-5. Also, the GI50 in the assay with Hs-578T was 34.5 µM (inactive); with HL-60, 12.7 µM (inactive); in the assay with MCF7, 21.5 µM (inactive); in the assay on CCRF-CEM it was 34.5 µM (inactive); with SK-MEL-28, 24 µM (inactive); with IGROV-1, 29.4 µM (inactive). Besides, the GI50 with SK-MEL-5 was 13.4 µM (inactive); in the assay with MDA-MB-231, 11.9 µM (inactive); in the assay with MDA-MB-435, 3.44 µM (inactive); in the assay with NCI-H522, 12.2 µM (inactive); in the assay with U-251 it was 21.7 µM (inactive); in the assay with HT-29, 17.5 µM (inactive). For the same compound, the GI50 with A549 was 17.1 µM (inactive).
As to `C1CSCCSS[C@@H]2CCCCC2SC1` (stereo partly drawn), the GI50 in the assay on HCT-116 was 81.8 µM (inactive); in the assay on OVCAR-4, > 100 µM (inactive); with SNB-75, > 100 µM (inactive); in the assay with SN12C it was > 100 µM (inactive); in the assay on DU-145 it was > 100 µM (inactive); in the assay with T47D it was > 100 µM (inactive). For the same compound, the GI50 in the assay with OVCAR-5 was > 100 µM (inactive); in the assay on HL-60, 56.6 µM (inactive); in the assay on MCF7 it was > 100 µM (inactive); in the assay on CCRF-CEM, > 100 µM (inactive); in the assay with SK-MEL-28, > 100 µM (inactive); in the assay on IGROV-1, > 100 µM (inactive). In addition, the GI50 in the assay with SK-MEL-5, in the assay with MDA-MB-231, in the assay on MDA-MB-435, in the assay with NCI-H522, in the assay on U-251 and with HT-29 was > 100 µM (inactive) in each case. In addition, the GI50 in the assay with A549 is > 100 µM (inactive).
With `CC(=O)OCC(OC(C)=O)C1C[C@H]2O[C@@H]3[C@H](C[C@H]2O1)O[C@@]1(C[C@@H]3C)C[C@H](C)[C@@H]2O[C@]3(C[C@@H]2O1)C[C@H]1O[C@H]2[C@H](C)[C@H]4OC(=O)C[C@H]5CC[C@@H]6OC7[C@H]8O[C@]9(CC[C@H]%10CC(=O)[C@H](CC[C@H]%11C[C@@H](C)C(=O)C(C[C@@H]4O[C@H]2C[C@H]1O3)O%11)O%10)CC8O[C@@H]7[C@@H](O9)[C@H]6O5` (stereo partly drawn), the GI50 is 0.00234 µM (active) in the assay on HCT-116; 0.00265 µM (active) in the assay on SNB-75; 0.0142 µM (active) in the assay with SN12C; 0.00423 µM (active) in the assay on DU-145; 0.00179 µM (active) with Hs-578T; 0.000489 µM (active) in the assay on HL-60. In addition, the GI50 in the assay with MCF7 was 0.00151 µM (active); in the assay on CCRF-CEM, 0.00436 µM (active); in the assay on SK-MEL-28, 0.011 µM (active); in the assay on IGROV-1 it was 0.00322 µM (active); in the assay on SK-MEL-5, 0.000458 µM (active); in the assay on MDA-MB-231 it was 0.0199 µM (active). In addition, the GI50 in the assay with MDA-MB-435 is 0.000195 µM (active); in the assay with NCI-H522, 0.00051 µM (active); in the assay on U-251, 0.00506 µM (active); in the assay on A549 it was 0.00501 µM (active).
Turning to `COc1ccc([C@@]23OC[C@@H]4[C@@H](OC[C@@H]42)c2cc(OC)c(OC)cc23)cc1OC`, the GI50 in the assay with HCT-116, in the assay on OVCAR-4, in the assay on SNB-75, in the assay with DU-145, with T47D and in the assay with OVCAR-5 was > 100 µM (inactive) in each case. For the same compound, the GI50 in the assay on HL-60, with MCF7, with SK-MEL-28, in the assay with IGROV-1, in the assay with SK-MEL-5 and in the assay on MDA-MB-231 was > 100 µM (inactive) each time. Besides, the GI50 in the assay on MDA-MB-435, with NCI-H522, in the assay on U-251 and in the assay on A549 was > 100 µM (inactive) each time.
